This is an account of results in patent US10316017B2, “COT modulators and methods of use thereof” (Gilead Sciences, Inc., priority 2015, dated 2019).

Molecules are shown by their SMILES. Where two headings read alike, the source gives them in different places.

Assay [1] has as its system TNFα production in LPS-stimulated human monocytes. The experiment in a line: Cot Monocyte TNFα Cell Based Assay. The conditions noted are these: Homo sapiens, Monocyte, read-out: EC50 TNF. A digest of the protocol: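 5,000 cells/well; cmpd 1 h, 37 °C, 0.5% DMSO final; LPS 50 pg/ml, 4 h, 37 °C; media TNFα by HTRF sandwich (cryptate/XL665), RT overnight; % control vs unstimulated/stimulated wells.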

The target in assay [2] is T1, human Cot catalytic domain (30-397 amino acids) (Homo sapiens, UniProt P41279).
T1 construct: Purified recombinant human Cot catalytic domain (30-397 amino acids) was purchased from Cama Biosciences; purchased Cama Biosciences (so in the source)
The experiment in a line: High Throughput Cot Biochemical Assay (KinEASE TR-FRET). Particulars: read-out: IC50 HTRF. Summed up:
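First, purified human Cot (aa 30-397) at 5 nM phosphorylates an XL665-labeled STK3 peptide (1 μM) at 400 μM ATP, pH 7.0, 0.1% DMSO. Then a europium-conjugated phospho-specific antibody binds the product, giving the TR-FRET signal.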
Background: In TR-FRET formats the signal depends on donor and acceptor labels being close together.

[3] abbreviates: TNFα in LPS-stimulated human monocytes.
[4] abbreviates: Cot KinEASE TR-FRET (HTRF) biochemical assay, 400 μM ATP.
Setting [5] is: LPS-stimulated human monocytes, TNFα TR-FRET.
The mark [6] stands for this setting: Cot KinEASE TR-FRET, 400 μM ATP.
Where [7] appears, read: Cot biochemical HTRF (KinEASE TR-FRET) assay.

T1 sequence (P41279 30-397): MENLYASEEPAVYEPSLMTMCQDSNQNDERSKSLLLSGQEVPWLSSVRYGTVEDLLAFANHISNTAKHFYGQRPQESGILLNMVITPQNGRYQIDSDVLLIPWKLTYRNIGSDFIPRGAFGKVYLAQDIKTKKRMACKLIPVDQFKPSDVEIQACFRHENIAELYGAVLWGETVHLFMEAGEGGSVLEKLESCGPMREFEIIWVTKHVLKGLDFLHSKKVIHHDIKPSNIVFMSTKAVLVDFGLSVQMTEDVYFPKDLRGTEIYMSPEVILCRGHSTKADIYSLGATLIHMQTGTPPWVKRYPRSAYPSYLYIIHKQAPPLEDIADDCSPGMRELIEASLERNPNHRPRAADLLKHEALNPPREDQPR

Broadly, the EC50 is the midpoint of the concentration-response curve. For orientation: IC50 means the concentration that inhibits the measured activity by half. Consider `[2H][C@](Nc1cc(Cl)c2ncc(C#N)c(Nc3cccc(Cl)c3C)c2c1)(c1ccc(F)cc1)c1cn(C2CC2)nn1` [Example 159, (S)-8-chloro-4-((3-chloro-2-methylphenyl)amino)-6-(((1-cyclopropyl-1H-1,2,3-triazol-4-yl)(4-fluorophenyl)methyl-d)amino)quinoline-3-carbonitrile], for which, in assay [1] (setting [3]), the concentration for a half-maximal effect (EC50) turned out to be 1340 nM. In assay [2] (setting [4]), the 50% inhibitory concentration (IC50) was 114 nM.
Regarding `Cc1c(-c2cn(C)cn2)cccc1[C@H](Nc1cc(C#N)c2ncc(C#N)c(NCC(C)(C)C)c2c1)c1cn(C2(C(F)(F)F)CC2)nn1` [Example 1145, (S)-6-(((2-methyl-3-(1-methyl-1H-imidazol-4-yl)phenyl)(1-(1-(trifluoromethyl)cyclopropyl)-1H-1,2,3-triazol-4-yl)methyl)amino)-4-(neopentylamino)quinoline-3,8-dicarbonitrile], in assay [1] (setting [5]), the EC50 was determined as 99 nM. In addition, the concentration for half-maximal inhibition (IC50) in assay [2] (setting [6]) was found to be 5 nM.
Consider `[2H][C@](Nc1cc(Cl)c2ncc(C#N)c(NOC(C)(C)C)c2c1)(c1ccc(F)cc1)c1cn(C2CC2)nn1` [Example 280, (S)-4-(tert-butoxyamino)-8-chloro-6-(((1-cyclopropyl-1H-1,2,3-triazol-4-yl)(4-fluorophenyl)methyl-d)amino)quinoline-3-carbonitrile], for which, in assay [1] (setting [3]), the concentration for a half-maximal effect (EC50) came to 1470 nM. The IC50 in assay [2] (setting [4]) came out at 228 nM.
`CC(C)(C)N1CCC(n2cc([C@@H](Nc3cc(Cl)c4ncc(C#N)c(Nc5ccc(F)c(Cl)c5)c4c3)c3cccc(N4CCCCC4=O)c3)nn2)CC1` [Example 548, (S)-6-(((1-(1-(tert-butyl)piperidin-4-yl)-1H-1,2,3-triazol-4-yl)(3-(2-oxopiperidin-1-yl)phenyl)methyl)amino)-8-chloro-4-((3-chloro-4-fluorophenyl)amino)quinoline-3-carbonitrile]: in assay [1] (setting [3]), the half-maximal effective concentration (EC50) was determined as 40 nM. Besides, the half-inhibitory concentration (IC50) in assay [2] (setting [7]) is 1 nM.
In the case of `[2H][C@](Nc1cc(Cl)c2ncc(C#N)c(NCC(C)(C)C)c2c1)(c1ccc(Cl)cc1)c1cn(C2CC2)nn1` [Example 936, (S)-8-chloro-6-(((4-chlorophenyl)(1-cyclopropyl-1H-1,2,3-triazol-4-yl)methyl-d)amino)-4-(neopentylamino) quinoline-3-carbonitrile], the EC50 in assay [1] (setting [5]) is 222 nM. Moreover, the 50% inhibitory concentration (IC50) in assay [2] (setting [6]) is 12 nM.
For the compound `[2H][C@](Nc1cc(Cl)c2ncc(C#N)c(Nc3cccc(Cl)c3OC)c2c1)(c1ccc(F)cc1)c1cn(C2CC2)nn1` [Example 163, (S)-8-chloro-4-((3-chloro-2-methoxyphenyl)amino)-6-(((1-cyclopropyl-1H-1,2,3-triazol-4-yl)(4-fluorophenyl)methyl-d)amino)quinoline-3-carbonitrile], in assay [1] (setting [3]), the EC50 was determined as 170 nM. Further, in assay [2] (setting [4]), the IC50 is 3 nM.
Take `[2H][C@](Nc1cc(Cl)c2ncc(C#N)c(N[C@@H](c3ccccc3)C3CC3)c2c1)(c1ccc(F)cc1)c1cn(C2CC2)nn1` [Example 185, 8-chloro-4-(((R)-cyclopropyl (phenyl)methyl)amino)-6-(((S)-(1-cyclopropyl-1H-1,2,3-triazol-4-yl)(4-fluorophenyl)methyl-d)amino)quinoline-3-carbonitrile]: the concentration for a half-maximal effect (EC50) in assay [1] (setting [3]) stood at 199 nM. Moreover, the IC50 in assay [2] (setting [4]) worked out at 11 nM.
For `[2H][C@](Nc1cc(C#N)c2ncc(C#N)c(NC3CCCC3(C)C)c2c1)(c1ccc(F)cc1)c1cn(C2(C(F)(F)F)CC2)nn1` (stereo partly drawn) [Example 1018, 4-((2,2-dimethylcyclopentyl)amino)-6-(((S)-(4-fluorophenyl)(1-(1-(trifluoromethyl)cyclopropyl)-1H-1,2,3-triazol-4-yl)methyl-d)amino)quinoline-3,8-dicarbonitrile], the concentration for a half-maximal effect (EC50) in assay [1] (setting [5]) came out at 326 nM. Further, the half-maximal inhibitory concentration (IC50) in assay [2] (setting [6]) was found to be 22 nM.
With `[2H][C@](Nc1cc(Cl)c2ncc(C#N)c(NCC3(C(F)F)CCC3)c2c1)(c1ccc(F)cc1)c1cn(C2CC2)nn1` [Example 198], the EC50 in assay [1] (setting [3]) amounted to 229 nM. Further, the half-maximal inhibitory concentration (IC50) in assay [2] (setting [4]) stood at 12 nM.
For `N#Cc1cnc2c(Cl)cc(N[C@@H](c3ccc(F)cc3)c3c[nH]nn3)cc2c1NCc1nccs1` [Example 402, (S)-8-chloro-6-(((4-fluorophenyl)(1H-1,2,3-triazol-4-yl)methyl)amino)-4-((thiazol-2-ylmethyl)amino)quinoline-3-carbonitrile], the EC50 in assay [1] (setting [3]) is 3650 nM. Besides, the IC50 in assay [2] (setting [4]) turned out to be 353 nM.
Consider `CC(C)(C)CNc1c(C#N)cnc2c(C#N)cc(N[C@H](c3cn(Cc4c(F)cccc4F)nn3)c3ccccc3Cl)cc12` [Example 1053, (S)-6-(((2-chlorophenyl)(1-(2,6-difluorobenzyl)-1H-1,2,3-triazol-4-yl)methyl)amino)-4-(neopentylamino)quinoline-3,8-dicarbonitrile], for which the concentration for a half-maximal effect (EC50) in assay [1] (setting [5]) came to 200 nM. The IC50 in assay [2] (setting [6]) was found to be 26 nM.
On to `CC(C)Nc1c(C#N)cnc2c(Cl)cc(N[C@@H](c3ccc(Cl)cc3)c3cn(C4CCN(C(C)(C)C)CC4)nn3)cc12` [Example 682, (S)-6-(((1-(1-(tert-butyl)piperidin-4-yl)-1H-1,2,3-triazol-4-yl)(4-chlorophenyl)methyl)amino)-8-chloro-4-(isopropylamino)quinoline-3-carbonitrile], for which, in assay [1] (setting [3]), the concentration giving a half-maximal response (EC50) was determined as 15700 nM. Moreover, the IC50 in assay [2] (setting [7]) was 599 nM.
Take `[2H][C@](Nc1cc(Cl)c2ncc(C#N)c(NCC(C)(C)c3ccccn3)c2c1)(c1ccc(F)cc1)c1cn(C2CC2)nn1` [Example 1016, (S)-8-chloro-6-(((1-cyclopropyl-1H-1,2,3-triazol-4-yl)(4-fluorophenyl)methyl-d)amino)-4-((2-methyl-2-(pyridin-2-yl)propyl)amino)quinoline-3-carbonitrile]: the EC50 in assay [1] (setting [5]) was at least 1000 nM. Further, in assay [2] (setting [6]), the IC50 came to 28 nM.
With `Cc1c(-c2cncn2C)cccc1[C@H](Nc1cc(C#N)c2ncc(C#N)c(NCC(C)(C)C)c2c1)c1cn(C2(C(F)(F)F)CC2)nn1` [Example 1135, (S)-6-(((2-methyl-3-(1-methyl-1H-imidazol-5-yl)phenyl)(1-(1-(trifluoromethyl)cyclopropyl)-1H-1,2,3-triazol-4-yl)methyl)amino)-4-(neopentylamino)quinoline-3,8-dicarbonitrile], in assay [1] (setting [5]), the EC50 came to 44 nM. Further, the IC50 in assay [2] (setting [6]) is 2 nM.
On to `CC(C)(C)CNc1c(C#N)cnc2c(C#N)cc(N[C@@H](c3ccc(F)cc3)c3cn(C4(C)CC4)nn3)cc12` [Example 978, (S)-6-(((4-fluorophenyl)(1-(1-methylcyclopropyl)-1H-1,2,3-triazol-4-yl)methyl)amino)-4-(neopentylamino)quinoline-3,8-dicarbonitrile], for which the EC50 in assay [1] (setting [5]) came to 65 nM. Also, the IC50 in assay [2] (setting [6]) stood at 5 nM.
In the case of `Cc1c(F)cccc1[C@H](Nc1cc(C#N)c2ncc(C#N)c(NCC(C)(C)C)c2c1)c1cn(C2(C(F)(F)F)CC2)nn1` [Example 1127, (S)-6-(((3-fluoro-2-methylphenyl)(1-(1-(trifluoromethyl)cyclopropyl)-1H-1,2,3-triazol-4-yl)methyl)amino)-4-(neopentylamino)quinoline-3,8-dicarbonitrile], the EC50 in assay [1] (setting [5]) came out at 221 nM. Also, the IC50 in assay [2] (setting [6]) turned out to be 13 nM.
As to `[2H][C@](Nc1cc(Cl)c2ncc(C#N)c(N[C@@H](CO)C(C)(C)C)c2c1)(c1ccc(F)cc1)c1cn(C2CC2)nn1` [Example 186, 8-chloro-6-(((S)-(1-cyclopropyl-1H-1,2,3-triazol-4-yl)(4-fluorophenyl)methyl-d)amino)-4-(((R)-1-hydroxy-3,3-dimethylbutan-2-yl)amino)quinoline-3-carbonitrile], in assay [1] (setting [3]), the concentration for a half-maximal effect (EC50) is over 10000 nM. In assay [2] (setting [4]), the half-inhibitory concentration (IC50) was over 10000 nM.
For the compound `Cn1cc(Nc2c(C#N)cnc3c(Cl)cc(N[C@@H](c4ccccc4)c4cn(C5CCN(C(C)(C)C)CC5)nn4)cc23)cn1` [Example 478, (S)-6-(((1-(1-(tert-butyl)piperidin-4-yl)-1H-1,2,3-triazol-4-yl)(phenyl)methyl)amino)-8-chloro-4-((1-methyl-1H-pyrazol-4-yl)amino)quinoline-3-carbonitrile], in assay [1] (setting [3]), the EC50 is 5530 nM. In addition, the IC50 in assay [2] (setting [7]) came out at 1050 nM.
For the compound `CC(C)(C)N1CCC(n2cc([C@@H](Nc3cc(Cl)c4ncc(C#N)c(Nc5ccccc5)c4c3)c3ccc(Cl)cc3)nn2)CC1` [Example 777, (S)-6-(((1-(1-(tert-butyl)piperidin-4-yl)-1H-1,2,3-triazol-4-yl)(4-chlorophenyl)methyl)amino)-8-chloro-4-(phenylamino)quinoline-3-carbonitrile], the 50% effective concentration (EC50) in assay [1] (setting [3]) was determined as 6970 nM. In addition, the 50% inhibitory concentration (IC50) in assay [2] (setting [7]) was 72 nM.
For `[2H][C@](Nc1cc(Br)c2ncc(C#N)c(NCC(C)(C)C)c2c1)(c1ccc(F)cc1)c1cn(CC(O)CNC(C)(C)C)nn1` (stereo partly drawn) [Example 988, 8-bromo-6-(((1S)-(1-(3-(tert-butylamino)-2-hydroxypropyl)-1H-1,2,3-triazol-4-yl)(4-fluorophenyl)methyl-d)amino)-4-(neopentylamino)quinoline-3-carbonitrile], the 50% effective concentration (EC50) in assay [1] (setting [5]) was 334 nM. Moreover, in assay [2] (setting [6]), the IC50 was found to be 14 nM.
Regarding `CC(C)(C)CNc1c(C#N)cnc2c(Cl)cc(N[C@@H](c3ccc(F)cc3)c3cn(C4(C)CC4)nn3)cc12` [Example 990, (S)-8-chloro-6-(((4-fluorophenyl)(1-(1-methylcyclopropyl)-1H-1,2,3-triazol-4-yl)methyl)amino)-4-(neopentylamino)quinoline-3-carbonitrile], in assay [1] (setting [5]), the 50% effective concentration (EC50) was determined as 76 nM. The IC50 in assay [2] (setting [6]) worked out at 12 nM.
